Our source for the IC50 values is US7202267B2, “Acyloxypyrrolidine derivatives, preparation thereof and application thereof in therapeutic” (Sanofi-aventis, priority 2002, dated 2007).

One assay addresses T1, human V1b receptors (Homo sapiens, UniProt P47901).
T1 construct: host or cells: cellular or adenohypophyseal membrane preparations
T1 sequence (P47901 1-424): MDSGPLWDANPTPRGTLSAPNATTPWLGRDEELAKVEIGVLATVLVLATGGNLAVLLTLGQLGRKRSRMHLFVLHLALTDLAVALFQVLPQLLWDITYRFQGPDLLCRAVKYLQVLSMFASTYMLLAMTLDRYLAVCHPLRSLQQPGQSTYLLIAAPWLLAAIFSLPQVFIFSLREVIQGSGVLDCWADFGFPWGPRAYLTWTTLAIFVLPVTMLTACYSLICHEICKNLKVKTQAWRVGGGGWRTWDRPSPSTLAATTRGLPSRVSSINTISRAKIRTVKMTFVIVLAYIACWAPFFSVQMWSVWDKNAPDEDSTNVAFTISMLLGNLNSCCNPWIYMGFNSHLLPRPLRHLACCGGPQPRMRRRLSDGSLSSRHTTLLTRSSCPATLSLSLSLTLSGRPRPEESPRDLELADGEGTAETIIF
The assay can be described thus: Displacement of [3H]-AVP binding to human V1b receptors. The note with it: cellular or adenohypophyseal membrane preparations. The procedure: The affinity of the compounds of formula (I) according to the invention, for V1b receptors for arginine-vasopressin, was determined in vitro using the method described by Y. DE KEYSER et al., Febs Letters, 1994, 356, 215–220. This method consists in studying, in vitro, the displacement of […] arginine-vasopressin ([^3H]-AVP) to V1b receptors present on cellular or adenohypophyseal membrane preparations bearing rat or human V1b receptors.
A general note: Loss of bound radioactivity is the signal in a displacement assay; it reports binding, not function.

The target of another assay is T2, human V1a receptors (Homo sapiens, UniProt P37288).
T2 construct: host or cells: cellular or membrane preparations
T2 sequence (P37288 whole entry): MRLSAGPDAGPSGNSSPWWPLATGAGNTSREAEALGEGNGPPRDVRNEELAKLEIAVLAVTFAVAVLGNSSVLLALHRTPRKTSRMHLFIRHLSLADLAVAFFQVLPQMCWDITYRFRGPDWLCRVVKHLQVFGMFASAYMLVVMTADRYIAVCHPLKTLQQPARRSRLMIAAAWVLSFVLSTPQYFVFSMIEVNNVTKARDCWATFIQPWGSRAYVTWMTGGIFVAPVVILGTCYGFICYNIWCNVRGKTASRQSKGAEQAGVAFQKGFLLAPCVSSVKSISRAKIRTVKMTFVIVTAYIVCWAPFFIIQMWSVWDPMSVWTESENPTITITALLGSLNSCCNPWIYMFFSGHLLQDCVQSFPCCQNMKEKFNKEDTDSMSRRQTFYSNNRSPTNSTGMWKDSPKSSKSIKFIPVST
The assay is described as follows: Displacement of [3H]-AVP binding to human V1a receptors. The note with it: cellular or membrane preparations. The procedure: The affinity of the compounds of formula (I) according to the invention, for V1a receptors for arginine-vasopressin, was determined in vitro using the method described by M. THIBONNIER et al., J. Biol. Chem., 1994, 269, 3304–3310. This method consists in studying, in vitro, the displacement of […] arginine-vasopressin ([^3H]-AVP) to V1a receptors present on cellular or membrane preparations bearing rat or human V1a receptors.

Consider `COc1ccc(S(=O)(=O)N2C(=O)[C@@](c3ccccc3OC)(N3C[C@H](OC(C)=O)C[C@H]3C(=O)N(C)C)c3cc(Cl)ccc32)c(OC)c1` [Example 1, (3R,5S)-1-[(3R)-5-chloro-1-[(2,4-dimethoxyphenyl)sulfonyl]-3-(2-methoxyphenyl)-2-oxo-2,3-dihydro-1H-indol-3-yl]-5-[(dimethylamino)carbonyl]-3-pyrrolidinyl acetate], for which the results for the IC50 at human V1b receptors and at human V1a receptors were 3.4 nM and 84 nM, respectively.

As a reminder, the IC50 is the concentration at which inhibition is half-maximal.
